For four compounds, TGI results are on record in PubChem BioAssay (NCI).

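Results reflect a 48-hour exposure of cells in 96-well plates to compound at five concentrations. TGI is the concentration that stops growth completely.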

In one experiment the test system is TK-10 renal. Description: inhibition of tumour cell growth, NCI panel, 48 h.
In turn, `CCOC(CN(C)C(=O)Nc1cccc2ccccc12)OCC` gave a TGI above 10 µM.

In turn, `O=c1oc2ccc3ccccc3c2cc1-c1cn2ccccc2n1` registered a TGI above 100 µM.

In the next experiment the test system is HT29 colon. Kind of experiment: inhibition of tumour cell growth, NCI panel, 48 h.
The compound `N#Cc1c(N)nc(-c2ccc(Cl)cc2)c2c1-c1ccccc1S(=O)(=O)CC2` displayed a TGI above 100 µM.

In the case of `O=C1/C(=C/c2ccccc2O)N=C(c2ccccc2)N1C1Nc2cc3c(cc2S1)NC(N1C(=O)/C(=C/c2ccccc2O)N=C1c1ccccc1)S3` (stereo not drawn), the TGI was above 100 µM.

In turn, `CCOC(CN(C)C(=O)Nc1cccc2ccccc12)OCC` displayed a TGI above 10 µM.

Compound `O=c1oc2ccc3ccccc3c2cc1-c1cn2ccccc2n1` came in with a TGI of 77.5 µM.

A further experiment deals with HS 578T breast. Kind of experiment: inhibition of tumour cell growth, NCI panel, 48 h.
For `N#Cc1c(N)nc(-c2ccc(Cl)cc2)c2c1-c1ccccc1S(=O)(=O)CC2`, the TGI is above 100 µM.

Consider `O=C1/C(=C/c2ccccc2O)N=C(c2ccccc2)N1C1Nc2cc3c(cc2S1)NC(N1C(=O)/C(=C/c2ccccc2O)N=C1c1ccccc1)S3` (stereo not drawn), for which the TGI is above 100 µM.

Compound `CCOC(CN(C)C(=O)Nc1cccc2ccccc12)OCC` gave a TGI above 10 µM.

Consider `O=c1oc2ccc3ccccc3c2cc1-c1cn2ccccc2n1`, for which the TGI was above 100 µM.

The test system of a further experiment is SR leukemia. Kind of experiment: inhibition of tumour cell growth, NCI panel, 48 h.
Regarding `N#Cc1c(N)nc(-c2ccc(Cl)cc2)c2c1-c1ccccc1S(=O)(=O)CC2`, the TGI is above 100 µM.

For `O=C1/C(=C/c2ccccc2O)N=C(c2ccccc2)N1C1Nc2cc3c(cc2S1)NC(N1C(=O)/C(=C/c2ccccc2O)N=C1c1ccccc1)S3` (stereo not drawn), the TGI was above 100 µM.

`CCOC(CN(C)C(=O)Nc1cccc2ccccc12)OCC` gave a TGI above 10 µM.

On to `O=c1oc2ccc3ccccc3c2cc1-c1cn2ccccc2n1`, for which the TGI is above 100 µM.

A further experiment has as its system SN12C renal. Description: inhibition of tumour cell growth, NCI panel, 48 h.
On to `N#Cc1c(N)nc(-c2ccc(Cl)cc2)c2c1-c1ccccc1S(=O)(=O)CC2`, for which the TGI is above 100 µM.

Consider `CCOC(CN(C)C(=O)Nc1cccc2ccccc12)OCC`, for which the TGI was above 10 µM.

Consider `O=c1oc2ccc3ccccc3c2cc1-c1cn2ccccc2n1`, for which the TGI is above 100 µM.

The subject of a further experiment is OVCAR-5 ovarian. Description: inhibition of tumour cell growth, NCI panel, 48 h.
`N#Cc1c(N)nc(-c2ccc(Cl)cc2)c2c1-c1ccccc1S(=O)(=O)CC2`: the TGI is above 100 µM.

With `O=C1/C(=C/c2ccccc2O)N=C(c2ccccc2)N1C1Nc2cc3c(cc2S1)NC(N1C(=O)/C(=C/c2ccccc2O)N=C1c1ccccc1)S3` (stereo not drawn), the TGI is above 100 µM.

A further experiment concerns CCRF-CEM leukemia. Kind of experiment: inhibition of tumour cell growth, NCI panel, 48 h.
As to `O=C1/C(=C/c2ccccc2O)N=C(c2ccccc2)N1C1Nc2cc3c(cc2S1)NC(N1C(=O)/C(=C/c2ccccc2O)N=C1c1ccccc1)S3` (stereo not drawn), the TGI is above 100 µM.

Take `CCOC(CN(C)C(=O)Nc1cccc2ccccc12)OCC`: the TGI is above 10 µM.

The compound `O=c1oc2ccc3ccccc3c2cc1-c1cn2ccccc2n1` gave a TGI above 100 µM.

The subject of the next experiment is HOP-62 NSCLC. Description: inhibition of tumour cell growth, NCI panel, 48 h.
`N#Cc1c(N)nc(-c2ccc(Cl)cc2)c2c1-c1ccccc1S(=O)(=O)CC2` yielded a TGI above 100 µM.

With `O=C1/C(=C/c2ccccc2O)N=C(c2ccccc2)N1C1Nc2cc3c(cc2S1)NC(N1C(=O)/C(=C/c2ccccc2O)N=C1c1ccccc1)S3` (stereo not drawn), the TGI is above 100 µM.

In turn, `CCOC(CN(C)C(=O)Nc1cccc2ccccc12)OCC` displayed a TGI above 10 µM.

`O=c1oc2ccc3ccccc3c2cc1-c1cn2ccccc2n1`: the TGI was above 100 µM.

The test system of the next experiment is DU-145 prostate. Description: inhibition of tumour cell growth, NCI panel, 48 h.
Regarding `N#Cc1c(N)nc(-c2ccc(Cl)cc2)c2c1-c1ccccc1S(=O)(=O)CC2`, the TGI was above 100 µM.

The compound `O=C1/C(=C/c2ccccc2O)N=C(c2ccccc2)N1C1Nc2cc3c(cc2S1)NC(N1C(=O)/C(=C/c2ccccc2O)N=C1c1ccccc1)S3` (stereo not drawn) registered a TGI above 100 µM.

Regarding `CCOC(CN(C)C(=O)Nc1cccc2ccccc12)OCC`, the TGI was above 10 µM.

On to `O=c1oc2ccc3ccccc3c2cc1-c1cn2ccccc2n1`, for which the TGI is above 100 µM.

In a further experiment the test system is SF-268 CNS. Description: inhibition of tumour cell growth, NCI panel, 48 h.
On to `N#Cc1c(N)nc(-c2ccc(Cl)cc2)c2c1-c1ccccc1S(=O)(=O)CC2`, for which the TGI is above 100 µM.

`O=C1/C(=C/c2ccccc2O)N=C(c2ccccc2)N1C1Nc2cc3c(cc2S1)NC(N1C(=O)/C(=C/c2ccccc2O)N=C1c1ccccc1)S3` (stereo not drawn): the TGI worked out at 59.6 µM.

In the case of `CCOC(CN(C)C(=O)Nc1cccc2ccccc12)OCC`, the TGI was above 10 µM.

The compound `O=c1oc2ccc3ccccc3c2cc1-c1cn2ccccc2n1` had a TGI above 100 µM.

In a further experiment the test system is OVCAR-3 ovarian. Description: inhibition of tumour cell growth, NCI panel, 48 h.
`N#Cc1c(N)nc(-c2ccc(Cl)cc2)c2c1-c1ccccc1S(=O)(=O)CC2` returned a TGI above 100 µM.

`O=C1/C(=C/c2ccccc2O)N=C(c2ccccc2)N1C1Nc2cc3c(cc2S1)NC(N1C(=O)/C(=C/c2ccccc2O)N=C1c1ccccc1)S3` (stereo not drawn) gave a TGI above 100 µM.

As for `CCOC(CN(C)C(=O)Nc1cccc2ccccc12)OCC`, the TGI is above 10 µM.

Consider `O=c1oc2ccc3ccccc3c2cc1-c1cn2ccccc2n1`, for which the TGI is above 100 µM.

The next experiment has as its system SK-MEL-5 melanoma. Kind of experiment: inhibition of tumour cell growth, NCI panel, 48 h.
Compound `N#Cc1c(N)nc(-c2ccc(Cl)cc2)c2c1-c1ccccc1S(=O)(=O)CC2` yielded a TGI above 100 µM.

The compound `O=C1/C(=C/c2ccccc2O)N=C(c2ccccc2)N1C1Nc2cc3c(cc2S1)NC(N1C(=O)/C(=C/c2ccccc2O)N=C1c1ccccc1)S3` (stereo not drawn) came in with a TGI above 100 µM.

`CCOC(CN(C)C(=O)Nc1cccc2ccccc12)OCC` came in with a TGI above 10 µM.

`O=c1oc2ccc3ccccc3c2cc1-c1cn2ccccc2n1` registered a TGI above 100 µM.

For another experiment, the system named is MCF7 breast. Description: inhibition of tumour cell growth, NCI panel, 48 h.
With `O=C1/C(=C/c2ccccc2O)N=C(c2ccccc2)N1C1Nc2cc3c(cc2S1)NC(N1C(=O)/C(=C/c2ccccc2O)N=C1c1ccccc1)S3` (stereo not drawn), the TGI was above 100 µM.

Consider `CCOC(CN(C)C(=O)Nc1cccc2ccccc12)OCC`, for which the TGI is above 10 µM.

Another experiment relates to IGROV1 ovarian. Kind of experiment: inhibition of tumour cell growth, NCI panel, 48 h.
`N#Cc1c(N)nc(-c2ccc(Cl)cc2)c2c1-c1ccccc1S(=O)(=O)CC2` came in with a TGI above 100 µM.

The compound `O=C1/C(=C/c2ccccc2O)N=C(c2ccccc2)N1C1Nc2cc3c(cc2S1)NC(N1C(=O)/C(=C/c2ccccc2O)N=C1c1ccccc1)S3` (stereo not drawn) showed a TGI above 100 µM.

The compound `CCOC(CN(C)C(=O)Nc1cccc2ccccc12)OCC` came in with a TGI above 10 µM.

As to `O=c1oc2ccc3ccccc3c2cc1-c1cn2ccccc2n1`, the TGI was above 100 µM.

Another experiment concerns RXF 393 renal. Description: inhibition of tumour cell growth, NCI panel, 48 h.
`O=C1/C(=C/c2ccccc2O)N=C(c2ccccc2)N1C1Nc2cc3c(cc2S1)NC(N1C(=O)/C(=C/c2ccccc2O)N=C1c1ccccc1)S3` (stereo not drawn): the TGI came out at 70 µM.

`CCOC(CN(C)C(=O)Nc1cccc2ccccc12)OCC`: the TGI was above 10 µM.

`O=c1oc2ccc3ccccc3c2cc1-c1cn2ccccc2n1` registered a TGI above 100 µM.

The next experiment has as its system U251 CNS. Kind of experiment: inhibition of tumour cell growth, NCI panel, 48 h.
As for `N#Cc1c(N)nc(-c2ccc(Cl)cc2)c2c1-c1ccccc1S(=O)(=O)CC2`, the TGI is above 100 µM.

With `O=C1/C(=C/c2ccccc2O)N=C(c2ccccc2)N1C1Nc2cc3c(cc2S1)NC(N1C(=O)/C(=C/c2ccccc2O)N=C1c1ccccc1)S3` (stereo not drawn), the TGI was above 100 µM.
